Source: patent publication US20250352608A1, “POLYPEPTIDES HAVING ANTI-INFLAMMATORY EFFECTS AND USES THEREOF” (OneSkin, Inc., priority 2020, published 2025)
Ends that are not written are not given here.

What was measured:
[1] = test system: Primary fibroblasts from Progeria patients; experiment: Senescence in Progeria fibroblasts (LKGIL, WLKGI); assay type: cell-based, human; conditions: 500 nM, 5 μM, 50 μM
[2] = test system: HGPS HDFs; experiment: PP2A modulators and senescence markers; assay type: cell-based, human; conditions: 48 hs; for cellular senescence (SA-BGal+ cells): Okadaic Acid 5-7.5 nM or DT-061 7.5 μM
Description: Since PP2A has not been explored for cellular senescence modulation, whether the treatment of HGPS HDFs with a PP2A inhibitor (Okadaic acid—OA) and activator (DT-061) would result in the modulation of cellular senescence markers was assessed. HGPS HDFs were treated with 5-7.5 nM Okadaic Acid or 7.5 μM DT-061 for 48 hs. Some cells were treated with both 5 nM Okadaic Acid and 12.5 μM Peptide 14 for 48 hours. The senescence level was determined by SA β-galactosidase staining and normalized to total cell number.

[3] = test system: human primary fibroblasts isolated from 3 healthy donors; experiment: Etoposide-induced senescence; assay type: cell-based; conditions: etoposide 20 μM
Description: Cellular senescence may be caused by several different stimuli. In order to assess whether Peptide 14 was effective against UVB-induced and chemically-induced senescence, human primary fibroblasts isolated from 3 healthy donors were used. These cells were cultured in DMEM (Dulbecco's Modified Eagle's Medium) supplemented with 10% v.v. fetal bovine serum (FBS), and 1% v.v. of penicillin/streptomycin solution (1,000 U mL-1). Cells were kept in a 5% CO2, 37° C. and 95% humidity atmosphere. After expansion, these cells were seeded in 96-well plates (4,000 cells per well) and, 6 hours after plating, were submitted to either etoposide (20 μM) treatment for 24 hours, or exposed twice to 0.05 J/cm^2 of UVB radiation. […] After incubation, relative cellular senescence (assessed by the activity of senescence associated β-galactosidase staining relative to untreated control) was analyzed and plotted in column graphs. ATRX foci were also assessed following ATRX immunofluorescence staining. Graphs were built using the average ATRX foci detected per nuclei. […] Data was analyzed using with either t-test or ANOVA followed by a Bonferroni post-hoc test. Statistical significance was determined as p-values equal or lower than 0.05 (FIG. 6).

[4] = test system: Primary fibroblasts from Progeria patients; experiment: Senescence screen (SA B-galactosidase staining) of polypeptide library; assay type: cell-based, human; conditions: 10 μM, 48 hours
Description: Primary fibroblasts isolated from Progeria patients can constitute a genetic model of early aging and cellular senescence in humans. Primary fibroblasts from Progeria patients were cultured in DMEM (Dulbecco's Modified Eagle's Medium) supplemented with 10% v.v. fetal bovine serum (FBS), and 1% v.v. of penicillin/streptomycin solution (1,000 U·mL-1). Cells were kept in a 5% CO2, 37° C. and 95% humidity atmosphere. After expansion, these cells were seeded in 96-well plates (1,000 cells per well) and, 6 hours after plating, were incubated with individual polypeptides from a proprietary library at 50 μM for 48 hours. Negative control comprised untreated cells, which received vehicle only; positive control group comprised cells incubated with 10 μM ABT-263, a senolytic compound for the same period. […] Three independent experiments including three technical replicates were performed.

[5] = test system: ex vivo skin biopsies (donors); experiment: Topical application to ex vivo skin biopsies; assay type: cell-based, human; conditions: vs untreated
Excerpt: Senescent cell accumulation in the skin has been related to facial wrinkling and perceived age. A formulation having a concentration of Peptide 14 in the formulation was adjusted (0.01% w/v) to support the skin penetration of the Peptide 14 of up to 2% into the dermis was applied to ex vivo skin biopsies (from donors). A topical retinol application group was used as an “anti-aging” control, due to its widespread and decades-long use in the field, along with a no treatment control group.

[6] = test system: peripheral blood mononuclear cells (PBMCs); experiment: PBMC mRNA of IFN-γ and IL-10 (RT-qPCR); assay type: cell-based, human
Description: The effect of Peptide 14 on T cell activation was assessed by treating PBMCs stimulated with phytohaemagglutinin (PHA) with Peptide 14. PHA usually can trigger lymphocyte activation and cell division. PBMCs that were untreated with PHA or Peptide 14 served as negative control of lymphocyte activation. In the phytohaemagglutinin group, the PBMCs were activated with 5 μg/mL of PHA for 5 days. In the Peptide 14 and PHA group, the PBMCs were activated with 5 μg/mL of PHA and treated with 3.12 μM of Peptide 14 for 5 days. In the Peptide 14 group, the PBMCs were treated with 3.12 μM of Peptide 14 for 5 days. In the rapamycin group, the PBMCs were treated with 100 nM of rapamycin, a well-known immunosuppressive drug for 5 days. In the rapamycin+PHA group, the PBMCs were activated with 5 μg/mL of PHA and treated with 100 nM of rapamycin for 5 days. […] IFN-γ is typically produced in lymphocytes stimulated by PHA and may be used as marker of PBMC stimulation level. IL-10 is an anti-inflammatory cytokine. The cells from each of the experimental groups were processed for total RNA isolation, reverse transcription of the RNA and RT-qPCR. Data is represented as relative expression normalized to ubiquitous gene expression and untreated PBMC negative control.

LKGIL [LKGIL] was tested. Which “cellular toxicity (relative cell number)” value [1] did it give?
Its value is “No cellular toxicity”.

For `O=S(=O)(N[C@@H]1CCC[C@H](N2c3ccccc3Oc3ccccc32)[C@H]1O)c1ccc(OC(F)(F)F)cc1` [DT-061], which “cellular senescence (SA-BGal+ cells)” value [2] is on record?
Its value is “SA-BGal+ cell reduction”.

With `COc1cc([C@@H]2c3cc4c(cc3[C@@H](O[C@@H]3O[C@@H]5CO[C@@H](C)O[C@H]5[C@H](O)[C@H]3O)[C@H]3COC(=O)[C@H]23)OCO4)cc(OC)c1O` [Etoposide, etoposide] as the molecule, how does the “ATRX foci nuclear accumulation (average ATRX foci/cell)” value ([3]; 24 hours) read?
Its value is “significant increase”.

What about the “cellular senescence level (SA β-galactosidase)” value ([3]; 24 hours (senescence inducer)) of the same molecule?
The value was “significant increase”.

`C=C1[C@@H](O)[C@@H]2O[C@]3(CC[C@H](/C=C/[C@@H](C)[C@@H]4CC(C)=C[C@@]5(O[C@H](C[C@@](C)(O)C(=O)O)CC[C@H]5O)O4)O3)CC[C@H]2O[C@@H]1[C@@H](O)C[C@H](C)[C@H]1O[C@@]2(CCCCO2)CC[C@H]1C` [OA, Okadaic acid] was tested. Which “cellular senescence (SA-BGal+ cells)” value [2] did it give?
Its value is “significant increase”.

What about the CDKN1A expression ([2]; Okadaic Acid 5-7.5 nM) of the same molecule?
Its CDKN1A expression is “significant increase”.

And the “CXCL1 (SASP marker) expression” value ([2]; Okadaic Acid 5-7.5 nM)?
Its value is “significant increase”.

What about the “IL6 (SASP marker) expression” value ([2]; Okadaic Acid 5-7.5 nM) of the same molecule?
The value was “significant increase”.

How did the “cellular toxicity (cell number)” value [4] turn out when `CC1(C)CCC(c2ccc(Cl)cc2)=C(CN2CCN(c3ccc(C(=O)NS(=O)(=O)c4ccc(N[C@H](CCN5CCOCC5)CSc5ccccc5)c(S(=O)(=O)C(F)(F)F)c4)cc3)CC2)C1` [ABT-263] was run?
Its value is “cellular toxicity”.

What about the “relative cellular senescence (SA B-galactosidase staining)” value ([4]; positive control) of the same molecule?
Its value is “significant reduction of cellular senescence”.

For `CC1=C(/C=C/C(C)=C/C=C/C(C)=C/CO)C(C)(C)CCC1` [Retinol], which “B2M expression, dermis” value [5] is on record?
Its value is “significantly decreased”.

What about the “HAS2 expression, dermal samples” value [5] of the same molecule?
The value was “increase”.

And the “IL8 level, epidermis” value [5]?
The value was “significantly increased”.

What about the “Ki-67 expression, epidermis” value [5] of the same molecule?
Its value is “significantly increased”.

What about the “P16 mRNA expression, dermis” value [5] of the same molecule?
The value was “significant increase”.

And the “P16 mRNA expression, epidermis” value [5]?
The value was “significant increase”.

And the “dermal Ki67 expression” value [5]?
Its value is “significantly induced”.

And the “dermal collagen 1 expression” value [5]?
The value was “significantly induced”.

And the “keratin 1 expression, epidermis” value [5]?
Its value is “significantly reduced”.

What about the “keratin 14 expression, epidermis” value [5] of the same molecule?
The value was “significantly reduced”.

How did the “cellular toxicity (relative cell number)” value [1] turn out when WLKGI [WLKGI] was run?
Its value is “No cellular toxicity”.

`CO[C@H]1C[C@@H]2CC[C@@H](C)[C@@](O)(O2)C(=O)C(=O)N2CCCC[C@H]2C(=O)O[C@H]([C@H](C)C[C@@H]2CC[C@@H](O)[C@H](OC)C2)CC(=O)[C@H](C)/C=C(\C)[C@@H](O)[C@@H](OC)C(=O)[C@H](C)C[C@H](C)/C=C/C=C/C=C/1C` [rapamycin] was tested. Which “relative expression level of IL-10 (negative control = 1)” value ([6]; single agent, 5 days (Peptide 14 3.12 μM; rapamycin 100 nM; PHA 5 μg/mL)) did it give?
Its value is “about 2.5”.

What about the “relative expression level of IL-10 (negative control = 1)” value ([6]; with 5 μg/mL PHA, 5 days (Peptide 14 3.12 μM; rapamycin 100 nM)) of the same molecule?
The value was “about 0.2”.
